Data on one compound can be found in patent US10632100B2, “Application of obacunone in preparation of drug for preventing and treating lung damage and pulmonary fibrosis” (GUANGDONG PROVINCIAL HOSPITAL OF TRADITIONAL CHINESE …, priority 2016, dated 2020).

Data set [1] concerns bleomycin-induced lung injury and pulmonary fibrosis. Put plainly: Inhibition of bleomycin-induced lung injury and pulmonary fibrosis in vivo (HE and Masson staining of lung tissue). Further details: species or system C57BL/6 mice. Particulars: 10 mg/kg obacunone intraperitoneally 48 hours before each bleomycin injection, lung tissue 7 days after last bleomycin, vs bleomycin group. Here is the method: (§1) Eighteen C57BL/6 mice, aged 8 weeks, each weighing 18 to 22 g, were provided by the Laboratory Animal Center of Guangzhou University of Chinese Medicine (Certificate No. 44007200023897).
Bleomycin was intraperitoneally injected into 8-week old B6 mice at a dose of 2 mg/mouse, once per week, three times in total. 48 hours before each injection with bleomycin, corn oil or 10 mg/kg obacunone was intraperitoneally injected into B6 mice in advance. 7 days after the last injection with bleomycin, lung tissue was isolated, fixed, sectioned, HE-stained (see Experiment 8 for details), and Masson-stained.

Data set [2] deals with cytokines IL-6, TGF-β, IL-17, IFN-γ and MCP-1. The data set can be described thus: Bleomycin-induced expression of inflammatory factors in lung tissue (qPCR). Particulars: BLM+obacunone injection group vs BLM injection group, FIG. 2. Format: in vivo, C57BL/6 mice. The method, then:
as §1
The mRNA levels of cytokines IL-6, TGF-β, IL-17, IFN-γ and MCP-1 were analyzed by qPCR. *P<0.05, **P<0.01 indicated significant differences between the BLM injection group and the normal group; ^# P<0.05, ^## P<0.01 indicated significant differences between the BLM injection group and the BLM+obacunone injection group.
(Real-time PCR tracks product formation cycle by cycle.)

Data set [3] concerns α-smooth muscle actin (α-SMA). The data set can be described thus: α-SMA expression in bleomycin-induced pulmonary fibrosis (immunohistochemistry staining). Format: in vivo, C57BL/6 mice. Conditions: after administration of obacunone, compared to the bleomycin group, FIG. 3.
Excerpt: as §1
In pulmonary fibrosis TGF-β induced lung interstitial fibroblasts to transform into myofibroblasts, of which the marker is the expression of α-smooth muscle actin (α-SMA). Therefore, in this experiment the effect of obacunone on the expression of α-SMA in lung myofibroblasts was investigated to provide experimental support for the use of obacunone in treatment and prevention of pulmonary fibrosis.
Steps of immunohistochemistry staining are as follows:
1) placing and baking paraffin wax sections in an electrothermal thermostat oven at 60° C. for 30 min;
2) dewaxing the sections with xylene (8 min for each of I and II), hydrating them with decreasing concentrations of ethanol (8 min for each concentration), and washing with water;
3) performing antigen retrieval, and washing the sections with PBS (3 times×3 min);
4) adding Solution A (S-P kit) dropwise, blocking at room temperature for 10 min, and washing the sections with PBS (3 times×3 min);
5) adding Solution B (S-P kit) dropwise, blocking at room temperature for 10 min, and blotting extra liquid;
6) adding a primary antibody dropwise, placing the sections in a wet box overnight at 4° C., and washing the sections with PBS (3 times×3 min); […]

The subject of a further data set is liver and kidney of mice. Put plainly: Damage caused by obacunone to liver and kidney of mice (HE staining). Particulars: 10 mg/kg obacunone, twice a week, 6 times in total; tissues 7 days after last injection; FIG. 4. The data set is classed as in vivo, C57BL/6 mice. The method, then: as §1
8-week aged B6 mice were injected with corn oil or 10 mg/kg obacunone, twice a week, 6 times in total. 7 days after the last injection, liver and kidney tissues were isolated, fixed, sectioned, and HE-stained (FIG. 4), as described below.
HE (Hematoxylin-eosin) staining: the paraffin wax samples were continuously sectioned with the semi-automated rotary microtome, with a thickness of 3.5 μm; for staining, the sections were baked and dried for 20 min, rinsed with xylene (2 times×10 min), with anhydrous ethanol (2 times×2 min), with 95% ethanol for 1 min, with 80% ethanol for 1 min, with 70% ethanol for 1 min, washed with water for 1 min, then stained with hematoxylin for 8 min, […], washed with water (2 times×1 min), with 0.5% HCl-ethanol for 10 sec, washed with water for 10 min, stained with eosin for 2 min, washed with water for 1 min, with 80% ethanol for 5 sec, with 85% ethanol for 5 sec, with 90% ethanol for 5 sec, with 95% ethanol for 1 min, with anhydrous ethanol (2 times×2 min), with anhydrous ethanol for 3 min, and with xylene (2 times×2 min), and then the staining was completed and the sections were directly mounted with neutral gum.

The subject of data set [4] is human colon cancer cells (SW480). Particulars: cited from earlier work.
In data set [5] the test system is human pancreatic cancer cells (Panc-28). Conditions: by activating p53; cited from earlier work.
The test system of the next data set is arginase. Particulars: reciprocally increasing NO production; cited from earlier work.

With `CC1(C)OC(=O)C=C[C@]2(C)[C@H]3CC[C@@]4(C)[C@H](c5ccoc5)OC(=O)[C@H]5O[C@]54[C@]3(C)C(=O)C[C@@H]12` [Obacunone], the “HE staining of lung tissue: pathological changes (alveolar shrinkage, inflammatory cell infiltration, wall thickening, bullae, interstitial proliferation)” value in data set [1] (FIG. 1A) is listed as “significant improvement of the above pathological changes”. In data set [1] (FIG. 1B), the “Masson staining of lung tissue: precipitation of stroma (collagen, fibronectin)” value was “significant improvement of the above pathological changes”. Besides, the “mRNA levels of cytokines IL-6, TGF-β, IL-17, IFN-γ and MCP-1 in lung tissue” value in data set [2] is reported as “repaired these bleomycin-induced changes to a great extent”. In data set [3], the “expression of α-SMA in lung tissue” value is given as “significantly reduced”. In addition, the “effect on liver and kidney (HE-stained sections)” value in the data set with liver and kidney of mice was “did not apparently affect the liver and kidney of mice”. The “apoptosis of SW480 cells” value in data set [4] (by activating cytochrome C) is “induced cell apoptosis”. Moreover, in data set [4] (by activating p21 to arrest the cell cycle at phases G2/M and G1), the “growth of tumor cells (SW480)” value was “suppressed growth of tumor cells”. Besides, the “apoptosis of Panc-28 tumor cells” value in data set [5] is listed as “induced apoptosis of tumor cells”. For the same compound, in the data set with arginase, the activity of arginase result is “inhibiting activity of arginase”.
